Source: US20160106102A1, “KNOWN AND NEW HETEROCYCLIC COMPOUNDS AS PEST CONTROL AGENTS” (BAYER CROPSCIENCE AKTIENGESELLSCHAFT, priority 2013, published 2016)

Legend:
Myzus persicae [1] = assay: Myzus persicae - spray test; format: in vivo; conditions: application rate of 500 g/ha; after 6 days; sprayed Chinese cabbage leaf discs infested by all stages; 100% = all aphids killed
Method in brief: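 Chinese cabbage leaf discs infested with all stages of green peach aphid sprayed with compound in acetone/DMF formulation with alkylaryl polyglycol ether emulsifier, diluted in emulsifier-containing water. Efficacy (% aphids killed) assessed after 6 days.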

Myzus persicae [2] = assay: Myzus persicae - sachet test; format: in vivo; conditions: 100% = all animals killed
Method in brief: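 Active ingredient dissolved with 2% N-methylpyrrolidone and 2% diacetone alcohol, diluted in water, then pipetted into nutrient medium. Plate sealed and paired with a plate carrying green peach aphids. Kill in % scored after the set time (100% = all dead, 0% = none dead).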

[3] = log P determination by LC-MS in the acidic range; format: physicochemical; conditions: LC-MS in the acidic range
Excerpt: The LC-MS determination in the acidic range is effected at pH 2.7 using 0.1% aqueous formic acid and acetonitrile (contains 0.1% formic acid) as eluents, linear gradient from 10% acetonitrile to 95% acetonitrile. Alternatively, the determination is effected in the acidic range at pH 2.3 using 0.1% aqueous phosphoric acid and acetonitrile as eluents; linear gradient from 10% acetonitrile to 95% acetonitrile.

[4] = application rate of 6 ppm in nutrient medium
[5] = application rate of 30 ppm in nutrient medium

log P (acid) [3]	SMILES	efficacy in % (Myzus persicae [1])	efficacy (kill in %) (Myzus persicae [2]; [4])	efficacy (kill in %) (Myzus persicae [2]; [5])
1.31	Cc1cc(NC(=O)c2cccnc2)nn1CC1CC1 [Compound I-1-174]	100%	100%	100%
0.71	COCn1nc(NC(=O)c2cccnc2)cc1C [Compound I-1-175]	100%	100%	100%
1.06	Cc1cc(NC(=O)c2cccnc2)nn1CC1CCCO1 (stereo not shown) [Compound I-1-176]	100%	80%	80%
0.7	COCn1nc(N(C)C(=O)c2cccnc2)cc1C [Compound I-1-178]	100%	–	80%
0.81	Cc1cc(NC(=O)c2cccnc2)nn1CC1OCCO1 [Compound I-1-180]	100%	80%	100%
1.05	Cc1cc(N(C)C(=O)c2cccnc2)nn1CC1CCCO1 (stereo not shown) [Compound I-1-181]	90%	–	80%
0.49	Cc1cc(NC(=O)c2cccnc2)nn1CCS(C)(=O)=O [Compound I-1-182]	100%	100%	100%
0.25	Cc1cc(NC(=O)c2cccnc2)nn1CC[S+](C)[O-] (stereo not shown) [Compound I-1-183]	90%	100%	100%
1.22	CSCCn1nc(NC(=O)c2cccnc2)cc1C [Compound I-1-184]	90%	100%	100%
0.57	Cc1cc(NC(=O)c2cccnc2)nn1CCC#N [Compound I-1-185]	100%	100%	100%
0.16	Cc1cc(N(C)C(=O)c2cccnc2)nn1CC[S+](C)[O-] (stereo not shown) [Compound I-1-186]	100%	100%	100%
1.17	CSCCn1nc(N(C)C(=O)c2cccnc2)cc1C [Compound I-1-187]	90%	100%	100%
1.45	Cc1cc(NC(=O)c2cccnc2)nn1CCC(F)(F)F [Compound I-1-188]	90%	100%	100%
1.53	CCSCCn1nc(NC(=O)c2cccnc2)cc1C [Compound I-1-189]	90%	100%	100%
0.46	CC[S+]([O-])CCn1nc(NC(=O)c2cccnc2)cc1C (stereo not shown) [Compound I-1-190]	100%	100%	100%
0.98	COC(=O)OCCn1nc(NC(=O)c2cccnc2)cc1C [Compound I-1-191]	90%	100%	100%
1.16	Cc1ccn(Cn2nc(NC(=O)c3cccnc3)cc2C)n1 [Compound I-1-192]	100%	100%	100%
1.46	O=C(Nc1cc(C(F)(F)F)n(Cc2ncccn2)n1)c1cccnc1 [Compound I-1-196]	90%	100%	100%
0.22	Cn1ccc(NC(=O)c2cccnc2)n1 [Compound I-1-198]	90%	100%	100%
1.85	Cc1cc(NC(=O)c2cccnc2)nn1-c1cccc(F)c1 [Compound I-1-202]	90%	80%	100%
1.79	Cc1cc(NC(=O)c2cccnc2)nn1-c1ccc(F)cc1 [Compound I-1-203]	90%	80%	100%

log P (acid) [3]	SMILES	efficacy in % (Myzus persicae [1])	efficacy (kill in %) (Myzus persicae [2]; [4])	efficacy (kill in %) (Myzus persicae [2]; [5])
2.02	Cc1cc(NC(=O)c2cccnc2)nn1C1CCCCC1 [Compound I-1-204]	90%	80%	80%
0.72	Cc1c(F)c(NC(=O)c2cccnc2)nn1Cc1ncccn1 [Compound I-1-211]	90%	100%	100%
0.94	Cc1c(Cl)c(NC(=O)c2cccnc2)nn1Cc1ncccn1 [Compound I-1-212]	90%	100%	100%
0.92	Cc1cc(NC(=O)c2cccnc2)nn1C(C)C#N (stereo not shown) [Compound I-1-214]	100%	100%	100%
1.16	O=C(Nc1nn(Cc2ncccn2)c2ccccc12)c1cccnc1 [Compound I-1-215]	90%	100%	100%
1.54	O=C(Nc1nn(Cc2ncccn2)c2ccccc12)c1cncc(F)c1 [Compound I-1-216]	90%	100%	100%
1.63	Cc1cc(NC(=O)c2cccnc2)nn1C(C)C1CC1 (stereo not shown) [Compound I-1-218]	100%	100%	100%
1.17	Cc1ccnn1Cn1nc(NC(=O)c2cccnc2)cc1C [Compound I-1-220]	90%	100%	100%
1.04	Cn1nc(NC(=O)c2cccnc2)cc1C(F)F [Compound I-1-221]	90%	100%	100%
0.65	Cc1cc(NC(=O)c2cccnc2)nn1Cn1ccnn1 [Compound I-1-223]	100%	100%	100%
0.58	Cc1cc(NC(=O)c2cccnc2)nn1Cn1cncn1 [Compound I-1-224]	100%	100%	100%
0.94	Cc1cc(NC(=O)c2cccnc2)nn1Cn1cccn1 [Compound I-1-225]	100%	100%	100%
1.24	Cc1cnn(Cn2nc(NC(=O)c3cccnc3)cc2C)c1 [Compound I-1-226]	100%	100%	100%
1.72	Cc1cc(NC(=O)c2cccnc2)nn1Cn1nccc1C(F)(F)F [Compound I-1-227]	90%	100%	100%
1.86	Cc1cc(NC(=O)c2cccnc2)nn1Cn1ccc(C(F)(F)F)n1 [Compound I-1-228]	90%	100%	100%
1.74	Cc1cc(NC(=O)c2cccnc2)nn1C1CCCC1 [Compound I-1-229]	90%	100%	100%
1.52	Cc1cc(NC(=O)c2cccnc2)nn1S(=O)(=O)N(C)C [Compound I-1-231]	90%	100%	100%
2	Cc1cc(NC(=O)c2cccnc2)nn1C(=O)Oc1ccccc1 [Compound I-1-233]	90%	100%	100%
1.25	Cc1cc(NC(=O)c2cccnc2)nn1CSc1ncccn1 [Compound I-1-234]	90%	100%	100%
1.84	Cc1cc(NC(=O)c2cccnc2)nn1CC1CC1(Cl)Cl (stereo not shown) [Compound I-1-237]	90%	100%	100%
1.75	CC(C)=CCn1nc(NC(=O)c2cccnc2)cc1C [Compound I-1-239]	90%	100%	100%
